Reference: ChEMBL document CHEMBL4706712, “Discovery and antitumor activity of Benzo[d]imidazol-containing 2,4-diarylaminopyrimidine analogues as ALK inhibitors with mutation-combating effects” (Bioorg Med Chem, 2021)

Tests used:
NCI-H2228 = test: cells; conditions: Homo sapiens, NCI-H2228, 72 h
Description: Antiproliferative activity against human NCI-H2228 cells assessed as reduction in cell growth measured after 72 hrs by MTT assay

KARPAS-299 = test: cells; conditions: Homo sapiens, KARPAS-299, 72 h
Description: Antiproliferative activity against human KARPAS-299 cells assessed as reduction in cell growth measured after 72 hrs by MTT assay

A549 = test: cells; conditions: Homo sapiens, A549, 72 h
Description: Antiproliferative activity against human A549 cells assessed as reduction in cell growth measured after 72 hrs by MTT assay

[1] = molecular target: T1, Receptor-type tyrosine-protein kinase FLT3 (Homo sapiens, UniProt P36888); test: Inhibition of N-terminal GST-tagged human FLT3 cytoplasmic domain (564 to 993 residues) expressed in baculovirus infected Sf21 insect cells using Srctide as substrate measured after 1 hr by mobility shift assay
T1 sequence (P36888 whole entry): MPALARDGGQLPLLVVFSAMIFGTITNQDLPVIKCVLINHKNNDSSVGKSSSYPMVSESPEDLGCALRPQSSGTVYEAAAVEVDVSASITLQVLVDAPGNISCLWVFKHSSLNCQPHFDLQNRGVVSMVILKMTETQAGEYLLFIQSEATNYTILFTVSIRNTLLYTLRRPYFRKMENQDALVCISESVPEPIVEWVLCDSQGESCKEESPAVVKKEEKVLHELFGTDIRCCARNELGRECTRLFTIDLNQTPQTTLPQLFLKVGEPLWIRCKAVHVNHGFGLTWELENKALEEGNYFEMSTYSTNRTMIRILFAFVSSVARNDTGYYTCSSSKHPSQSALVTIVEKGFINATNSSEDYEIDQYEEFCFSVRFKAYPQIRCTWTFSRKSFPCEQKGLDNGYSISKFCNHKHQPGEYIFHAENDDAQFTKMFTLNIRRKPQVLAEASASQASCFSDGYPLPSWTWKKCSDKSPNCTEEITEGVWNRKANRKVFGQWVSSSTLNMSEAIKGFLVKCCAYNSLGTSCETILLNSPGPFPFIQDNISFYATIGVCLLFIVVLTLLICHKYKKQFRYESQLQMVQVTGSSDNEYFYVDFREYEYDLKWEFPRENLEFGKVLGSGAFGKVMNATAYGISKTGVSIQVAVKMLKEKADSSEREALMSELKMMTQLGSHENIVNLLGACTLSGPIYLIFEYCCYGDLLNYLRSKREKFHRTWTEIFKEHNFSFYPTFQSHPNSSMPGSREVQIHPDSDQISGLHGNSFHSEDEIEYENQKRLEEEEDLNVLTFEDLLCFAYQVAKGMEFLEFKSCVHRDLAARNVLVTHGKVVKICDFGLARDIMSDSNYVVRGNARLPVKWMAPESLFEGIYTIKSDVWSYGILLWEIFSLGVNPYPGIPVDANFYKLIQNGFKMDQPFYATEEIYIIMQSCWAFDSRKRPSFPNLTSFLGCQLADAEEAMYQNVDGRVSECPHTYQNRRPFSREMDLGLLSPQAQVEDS

[2] = molecular target: ALK tyrosine kinase receptor (Homo sapiens, UniProt Q9UM73); test: Inhibition of human N-terminal GST-fused ALK cytoplasmic domain (1058 to 1620 residues) expressed in baculovirus infected Sf21 insect cells using Srctide as substrate measured after 1 hr by mobility shift assay
Chain of ALK tyrosine kinase receptor (Homo sapiens, UniProt Q9UM73) (Q9UM73 whole entry, the tested form may be a part): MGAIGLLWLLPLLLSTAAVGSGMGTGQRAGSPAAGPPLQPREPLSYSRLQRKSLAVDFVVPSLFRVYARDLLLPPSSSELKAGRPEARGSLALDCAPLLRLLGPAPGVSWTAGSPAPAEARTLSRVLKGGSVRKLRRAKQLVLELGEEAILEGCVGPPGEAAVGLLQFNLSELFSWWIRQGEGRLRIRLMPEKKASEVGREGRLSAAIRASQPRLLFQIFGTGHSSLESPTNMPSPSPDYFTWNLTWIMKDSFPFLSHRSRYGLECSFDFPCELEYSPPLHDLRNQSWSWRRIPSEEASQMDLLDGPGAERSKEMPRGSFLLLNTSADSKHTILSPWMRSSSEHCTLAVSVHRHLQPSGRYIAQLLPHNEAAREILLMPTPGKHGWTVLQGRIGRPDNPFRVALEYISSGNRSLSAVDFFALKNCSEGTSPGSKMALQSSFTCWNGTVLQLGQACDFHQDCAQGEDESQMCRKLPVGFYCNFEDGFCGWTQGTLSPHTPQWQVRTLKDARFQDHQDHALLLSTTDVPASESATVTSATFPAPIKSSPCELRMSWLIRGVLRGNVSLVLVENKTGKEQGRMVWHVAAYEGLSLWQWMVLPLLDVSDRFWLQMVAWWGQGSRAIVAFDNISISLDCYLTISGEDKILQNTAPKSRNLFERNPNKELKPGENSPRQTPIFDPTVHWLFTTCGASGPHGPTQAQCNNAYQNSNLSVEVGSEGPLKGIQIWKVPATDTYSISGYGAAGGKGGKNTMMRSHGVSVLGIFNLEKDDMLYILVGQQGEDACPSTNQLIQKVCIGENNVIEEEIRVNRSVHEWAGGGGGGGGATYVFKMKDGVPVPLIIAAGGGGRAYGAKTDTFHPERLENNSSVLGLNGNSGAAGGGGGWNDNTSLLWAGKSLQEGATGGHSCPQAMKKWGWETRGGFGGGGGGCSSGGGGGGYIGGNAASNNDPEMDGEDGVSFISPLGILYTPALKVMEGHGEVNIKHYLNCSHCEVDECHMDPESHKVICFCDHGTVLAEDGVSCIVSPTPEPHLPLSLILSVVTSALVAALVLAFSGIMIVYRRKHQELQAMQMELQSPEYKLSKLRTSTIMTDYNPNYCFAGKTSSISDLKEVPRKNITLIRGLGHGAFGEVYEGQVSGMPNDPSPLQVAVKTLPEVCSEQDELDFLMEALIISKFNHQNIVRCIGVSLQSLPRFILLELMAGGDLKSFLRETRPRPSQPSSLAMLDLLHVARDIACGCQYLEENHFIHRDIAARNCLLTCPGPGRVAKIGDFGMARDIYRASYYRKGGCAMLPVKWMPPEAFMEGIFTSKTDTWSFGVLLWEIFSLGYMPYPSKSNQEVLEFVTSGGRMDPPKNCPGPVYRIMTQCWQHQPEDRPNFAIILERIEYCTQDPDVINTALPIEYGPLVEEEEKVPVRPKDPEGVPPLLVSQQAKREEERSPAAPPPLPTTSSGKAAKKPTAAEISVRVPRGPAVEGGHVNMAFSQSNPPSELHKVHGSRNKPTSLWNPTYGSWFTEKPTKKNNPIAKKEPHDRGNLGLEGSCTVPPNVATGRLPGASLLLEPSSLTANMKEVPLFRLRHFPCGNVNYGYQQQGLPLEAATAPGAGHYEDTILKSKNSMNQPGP

[3] = molecular target: Epidermal growth factor receptor (Homo sapiens, UniProt P00533); test: Inhibition of N-terminal GST-tagged human EGFR cytoplasmic domain (669 to 1210 residues) expressed in baculovirus infected Sf21 insect cells using Srctide as substrate measured after 1 hr by mobility shift assay
Chain of Epidermal growth factor receptor (P00533 whole entry, the tested form may be a part): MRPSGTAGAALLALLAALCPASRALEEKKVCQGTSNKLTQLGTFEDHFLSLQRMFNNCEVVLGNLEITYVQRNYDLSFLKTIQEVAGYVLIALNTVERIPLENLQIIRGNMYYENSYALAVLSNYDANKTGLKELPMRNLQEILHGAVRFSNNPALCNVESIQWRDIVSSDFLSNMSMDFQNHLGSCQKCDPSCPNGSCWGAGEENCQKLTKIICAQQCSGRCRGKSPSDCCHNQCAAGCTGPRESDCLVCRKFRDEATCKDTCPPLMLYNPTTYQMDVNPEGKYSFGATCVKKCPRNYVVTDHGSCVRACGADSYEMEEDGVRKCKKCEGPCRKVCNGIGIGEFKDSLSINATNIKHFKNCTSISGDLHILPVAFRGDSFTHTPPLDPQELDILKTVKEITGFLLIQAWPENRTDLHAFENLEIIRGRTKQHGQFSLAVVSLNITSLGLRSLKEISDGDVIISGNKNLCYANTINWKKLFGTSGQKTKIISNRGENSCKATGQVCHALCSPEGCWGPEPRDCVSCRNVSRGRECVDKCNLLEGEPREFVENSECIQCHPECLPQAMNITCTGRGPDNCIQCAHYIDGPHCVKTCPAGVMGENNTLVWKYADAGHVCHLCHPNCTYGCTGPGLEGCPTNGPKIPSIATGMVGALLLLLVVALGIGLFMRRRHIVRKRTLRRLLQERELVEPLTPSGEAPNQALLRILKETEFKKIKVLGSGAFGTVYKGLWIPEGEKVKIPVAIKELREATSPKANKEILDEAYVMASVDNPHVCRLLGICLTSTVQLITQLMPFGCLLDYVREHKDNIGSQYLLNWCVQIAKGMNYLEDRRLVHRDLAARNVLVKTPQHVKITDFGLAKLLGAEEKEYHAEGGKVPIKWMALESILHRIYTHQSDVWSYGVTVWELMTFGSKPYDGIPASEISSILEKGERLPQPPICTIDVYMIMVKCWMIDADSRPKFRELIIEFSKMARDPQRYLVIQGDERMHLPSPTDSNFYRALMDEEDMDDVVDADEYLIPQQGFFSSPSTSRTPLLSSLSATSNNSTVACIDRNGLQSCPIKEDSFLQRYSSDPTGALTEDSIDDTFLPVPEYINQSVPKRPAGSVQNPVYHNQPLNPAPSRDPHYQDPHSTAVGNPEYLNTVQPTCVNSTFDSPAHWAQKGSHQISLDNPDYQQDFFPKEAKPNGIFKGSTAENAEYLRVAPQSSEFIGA

[4] = molecular target: ALK tyrosine kinase receptor (Homo sapiens, UniProt Q9UM73, G1202R); test: Inhibition of human N-terminal GST-fused ALK G1202R mutant cytoplasmic domain (1058 to 1620 residues) expressed in baculovirus infected Sf21 insect cells using Srctide as substrate measured after 1 hr by mobility shift assay
Chain of ALK tyrosine kinase receptor (Homo sapiens, UniProt Q9UM73, G1202R) (Q9UM73 19-1620 G1202R limits assumed): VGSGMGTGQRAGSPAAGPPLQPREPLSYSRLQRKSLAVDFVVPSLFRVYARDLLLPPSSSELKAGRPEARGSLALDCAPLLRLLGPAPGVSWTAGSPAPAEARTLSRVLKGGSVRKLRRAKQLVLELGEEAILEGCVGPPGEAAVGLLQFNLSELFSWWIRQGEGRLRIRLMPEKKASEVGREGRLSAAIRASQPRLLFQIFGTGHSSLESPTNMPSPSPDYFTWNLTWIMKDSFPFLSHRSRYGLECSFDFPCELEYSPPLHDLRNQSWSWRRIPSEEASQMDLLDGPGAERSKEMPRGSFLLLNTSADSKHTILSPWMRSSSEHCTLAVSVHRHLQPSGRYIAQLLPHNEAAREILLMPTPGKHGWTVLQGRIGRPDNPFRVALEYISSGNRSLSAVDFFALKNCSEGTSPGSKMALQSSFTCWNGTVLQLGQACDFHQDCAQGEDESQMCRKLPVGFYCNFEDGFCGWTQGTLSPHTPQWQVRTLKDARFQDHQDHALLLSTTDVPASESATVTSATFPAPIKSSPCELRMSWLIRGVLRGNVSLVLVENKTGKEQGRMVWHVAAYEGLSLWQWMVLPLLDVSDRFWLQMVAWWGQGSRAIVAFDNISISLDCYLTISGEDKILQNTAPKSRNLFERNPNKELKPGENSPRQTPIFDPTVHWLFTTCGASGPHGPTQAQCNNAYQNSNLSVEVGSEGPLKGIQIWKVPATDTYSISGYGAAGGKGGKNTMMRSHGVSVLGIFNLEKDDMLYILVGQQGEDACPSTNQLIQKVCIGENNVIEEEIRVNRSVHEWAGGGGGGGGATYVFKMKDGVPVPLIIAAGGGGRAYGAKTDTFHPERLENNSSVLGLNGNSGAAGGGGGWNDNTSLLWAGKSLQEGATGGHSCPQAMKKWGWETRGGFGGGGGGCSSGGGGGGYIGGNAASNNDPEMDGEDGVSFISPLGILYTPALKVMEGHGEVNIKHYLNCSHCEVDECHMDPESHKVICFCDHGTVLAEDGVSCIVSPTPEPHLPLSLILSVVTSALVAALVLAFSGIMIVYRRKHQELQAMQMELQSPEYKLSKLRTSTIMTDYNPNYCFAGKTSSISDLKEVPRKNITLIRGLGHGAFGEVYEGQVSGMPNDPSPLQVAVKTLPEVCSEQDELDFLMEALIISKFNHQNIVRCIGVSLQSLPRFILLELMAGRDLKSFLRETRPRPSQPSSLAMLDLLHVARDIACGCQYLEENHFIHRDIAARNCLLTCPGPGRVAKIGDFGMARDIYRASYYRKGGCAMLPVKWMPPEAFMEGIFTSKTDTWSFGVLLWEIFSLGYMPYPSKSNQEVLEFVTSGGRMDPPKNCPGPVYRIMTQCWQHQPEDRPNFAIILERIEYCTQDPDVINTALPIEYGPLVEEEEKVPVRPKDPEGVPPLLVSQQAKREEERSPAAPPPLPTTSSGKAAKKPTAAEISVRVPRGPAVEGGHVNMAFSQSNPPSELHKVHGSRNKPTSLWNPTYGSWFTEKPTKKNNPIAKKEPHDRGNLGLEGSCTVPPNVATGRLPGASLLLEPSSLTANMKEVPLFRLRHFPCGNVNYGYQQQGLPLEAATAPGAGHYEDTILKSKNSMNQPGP

[5] = molecular target: ALK tyrosine kinase receptor (Homo sapiens, UniProt Q9UM73, L1196M); test: Inhibition of human N-terminal GST-fused ALK L1196M mutant cytoplasmic domain (1058 to 1620 residues) expressed in baculovirus infected Sf21 insect cells using Srctide as substrate measured after 1 hr by mobility shift assay

| SMILES | IC50 (NCI-H2228) | IC50 (KARPAS-299) | IC50 (A549) | IC50 [1] | IC50 [2] | IC50 [3] | IC50 [4] | IC50 [5] |
| --- | --- | --- | --- | --- | --- | --- | --- | --- |
| CN(C)C(=O)c1ccccc1Nc1nc(Nc2ccc3nc(CN4CCCCC4)[nH]c3c2)ncc1Cl | 337 nM | 57 nM | 1870 nM | – | – | – | – | – |
| CS(=O)(=O)Nc1ccccc1Nc1nc(Nc2ccc3nc(CN4CCCCC4)[nH]c3c2)ncc1Cl | 429 nM | 68 nM | 6010 nM | 186 nM | 5.3 nM | > 1000 nM | 7.1 nM | 8.4 nM |
| CCN(CC)Cc1nc2ccc(Nc3ncc(Cl)c(Nc4ccccc4NS(C)(=O)=O)n3)cc2[nH]1 | 1230 nM | 79 nM | > 10000 nM | – | – | – | – | – |
| CN(C)C(=O)c1ccccc1Nc1nc(Nc2ccc3nc(CN4CCCC4)[nH]c3c2)ncc1Cl | 291 nM | 54 nM | > 10000 nM | 103 nM | 3.4 nM | > 1000 nM | 13.3 nM | 5.3 nM |
| CN(C)Cc1nc2ccc(Nc3ncc(Cl)c(Nc4ccccc4NS(C)(=O)=O)n3)cc2[nH]1 | 326 nM | 56 nM | 3010 nM | > 200 nM | 4 nM | > 1000 nM | 8.2 nM | 3.7 nM |
| CN(C)Cc1nc2ccc(Nc3ncc(Cl)c(Nc4ccccc4C(=O)N(C)C)n3)cc2[nH]1 | 127 nM | 47 nM | > 10000 nM | > 200 nM | 3.2 nM | > 1000 nM | 6.9 nM | 3.8 nM |
| CS(=O)(=O)Nc1ccccc1Nc1nc(Nc2ccc3nc(CN4CCSCC4)[nH]c3c2)ncc1Cl | 3230 nM | 1840 nM | > 10000 nM | – | – | – | – | – |
| CN(C)C(=O)c1ccccc1Nc1nc(Nc2ccc3nc(CN4CCSCC4)[nH]c3c2)ncc1Cl | 2350 nM | 1290 nM | 7360 nM | – | – | – | – | – |
| CS(=O)(=O)Nc1ccccc1Nc1nc(Nc2ccc3nc(CN4CCOCC4)[nH]c3c2)ncc1Cl | 1070 nM | 798 nM | > 10000 nM | – | – | – | – | – |
| CN1CCN(Cc2nc3ccc(Nc4ncc(Cl)c(Nc5ccccc5NS(C)(=O)=O)n4)cc3[nH]2)CC1 | – | – | – | 135 nM | 3.6 nM | – | 7 nM | 4.9 nM |
| CCN(CC)Cc1nc2ccc(Nc3ncc(Cl)c(Nc4ccccc4C(=O)N(C)C)n3)cc2[nH]1 | 1450 nM | 1230 nM | 2930 nM | – | – | – | – | – |
| CN1CCN(Cc2nc3ccc(Nc4ncc(Cl)c(Nc5ccccc5C(=O)N(C)C)n4)cc3[nH]2)CC1 | – | – | – | > 200 nM | 2.7 nM | – | 5.7 nM | 3.8 nM |
| CNC(=O)c1ccccc1Nc1nc(Nc2ccc3nc(CN(C)C)[nH]c3c2)ncc1Cl | 338 nM | 62 nM | 4790 nM | – | – | – | – | – |
| CC(C)N(Cc1nc2ccc(Nc3ncc(Cl)c(Nc4ccccc4NS(C)(=O)=O)n3)cc2[nH]1)C(C)C | 3790 nM | 2010 nM | 5370 nM | – | – | – | – | – |
| CN(C)C(=O)c1ccccc1Nc1nc(Nc2ccc3nc(CN4CCOCC4)[nH]c3c2)ncc1Cl | 1270 nM | 833 nM | > 10000 nM | – | – | – | – | – |
| Cc1cc(Nc2ncc(Cl)c(Nc3ccccc3S(=O)(=O)C(C)C)n2)c(OC(C)C)cc1C1CCNCC1 [CERITINIB] | 107 nM | 31 nM | – | 86.4 nM | – | – | – | – |

More lines, main results first:

| IC50 (NCI-H2228) | IC50 (KARPAS-299) | IC50 (A549) | SMILES | IC50 [1] | IC50 [2] | IC50 [3] | IC50 [4] | IC50 [5] |
| --- | --- | --- | --- | --- | --- | --- | --- | --- |
| 2360 nM | 1350 nM | > 10000 nM | CC(=O)Nc1ccccc1Nc1nc(Nc2ccc3nc(CN4CCN(CCO)CC4)[nH]c3c2)ncc1Cl | – | – | – | – | – |
| 347 nM | 62 nM | 1860 nM | CS(=O)(=O)Nc1ccccc1Nc1nc(Nc2ccc3nc(CN4CCCC4)[nH]c3c2)ncc1Cl | – | – | – | – | – |
| 1290 nM | 249 nM | > 10000 nM | CN(C)C(=O)c1ccccc1Nc1nc(Nc2ccc3nc(CN4CCN(CCO)CC4)[nH]c3c2)ncc1Cl | – | – | – | – | – |
| 1720 nM | 1030 nM | > 10000 nM | CS(=O)(=O)Nc1ccccc1Nc1nc(Nc2ccc3nc(CN4CCN(CCO)CC4)[nH]c3c2)ncc1Cl | – | – | – | – | – |
| 632 nM | 77 nM | > 10000 nM | CNC(=O)c1ccccc1Nc1nc(Nc2ccc3nc(CN4CCC(C)CC4)[nH]c3c2)ncc1Cl | – | – | – | – | – |
| 507 nM | 79 nM | > 10000 nM | CC(=O)Nc1ccccc1Nc1nc(Nc2ccc3nc(CN(C)C)[nH]c3c2)ncc1Cl | – | – | – | – | – |
| 1030 nM | 432 nM | > 10000 nM | CCN1CCN(Cc2nc3ccc(Nc4ncc(Cl)c(Nc5ccccc5NS(C)(=O)=O)n4)cc3[nH]2)CC1 | – | – | – | – | – |
| 230 nM | 107 nM | > 10000 nM | CC(=O)Nc1ccccc1Nc1nc(Nc2ccc3nc(CN4CCN(C)CC4)[nH]c3c2)ncc1Cl | – | – | – | – | – |
| 975 nM | 193 nM | 6030 nM | CC(=O)Nc1ccccc1Nc1nc(Nc2ccc3nc(CN4CCC(C)CC4)[nH]c3c2)ncc1Cl | – | – | – | – | – |
| 770 nM | 136 nM | > 10000 nM | CC1CCN(Cc2nc3ccc(Nc4ncc(Cl)c(Nc5ccccc5NS(C)(=O)=O)n4)cc3[nH]2)CC1 | – | – | – | – | – |
| 1310 nM | 391 nM | > 10000 nM | CNC(=O)c1ccccc1Nc1nc(Nc2ccc3nc(CN4CCN(CCO)CC4)[nH]c3c2)ncc1Cl | – | – | – | – | – |
| 583 nM | 203 nM | > 10000 nM | CCN1CCN(Cc2nc3ccc(Nc4ncc(Cl)c(Nc5ccccc5C(=O)N(C)C)n4)cc3[nH]2)CC1 | – | – | – | – | – |
| 1300 nM | 1290 nM | > 10000 nM | CS(=O)(=O)Nc1ccccc1Nc1nc(Nc2ccc3nc(CN4CCC(O)CC4)[nH]c3c2)ncc1Cl | – | – | – | – | – |
